From US20220054477A1, “INDUCTION OF SUSTAINED LOCAL INFLAMMATION” (Ascendis Pharma Oncology Division A/S, priority 2019, published 2022)
Marks after values point to notes of the source that are not given here.

Legend:
TNFα = test: In vivo cytokine induction, plasma cytokine levels: TNFα (Example 12); parameters: species or system BALB/C mice; conditions: single intratumoral dose
Protocol: (§1) Mice were subcutaneously implanted with 3×10^5 CT26 tumor cells in the left and right flanks. […] Hydrogels were administered as suspensions in PBST buffer. K2 EDTA-preserved blood samples were collected by retro-orbital bleed at various time points following drug administration and plasma was isolated following centrifugation at 2000×g for 5 minutes at 4° C. and frozen. Plasma samples were stored at −80° C. Plasma was thawed and undiluted samples were assessed for cytokine levels using the 36-Plex Mouse ProcartaPlex™ Cytokine Panel 1A (ThermoFisher Scientific) following manufacturer's recommendations. Cytokines were measured on the Bio-Plex 200 (BioRad) following kit instructions. For sample values below or at the lower limit of quantitation (LLOQ) of the assay, a value of 0.01 pg/mL was instead used in determining mean cytokine concentrations.

Cxcl10 = test: PBMC gene expression (qPCR, 6 hours post-treatment): Cxcl10 (Example 17); format: in vivo, BALB/C mice
Protocol: (§2) Hydrogels were administered as suspensions in PTP buffer. […] Tumors were excised, weighed and snap frozen.
(§3) For PBMC isolations, approximately 600 μl of whole blood was collected via cardiac puncture. The collected whole blood from each individual mouse was diluted with a 1:1 ratio of pre-warmed PBS supplemented with 2% Fetal Bovine Serum (FBS). Then an equal volume of Histopaque-1083 was added to a new sterile 15 mL conical tube, where the diluted whole blood was layered over the Histopaque-1083. The mixture was then centrifuged at 400 g for 30 minutes. […]
(§4) Lysates from untreated control samples and 6 hour treated samples were thawed and RNA was isolated using the RNeasy Mini Kit (QIAGEN) following manufacturer's recommendations. […] RNA concentrations were measured using a NanoDrop (ThermoFisher) and then adjusted to […] with RNase-free water. RNA quality was assessed using a NanoDrop (ThermoFisher). […] 200 ng of cDNA was used for quantitative PCR using the RT^2 SYBR Green ROX qPCR Master mix (2×) kit (QIAGEN) following manufacturer's recommendations. […]
(§5) Cycle thresholds (CT) were collected using a 384-well platform ABI-7900H real-time qPCR system (Applied Biosystems). […] 2^ΔΔCT values were calculated with the following formula: […]
(§6) For each gene, 3 technical replicates were analyzed per biological replicate. Undetermined technical replicate CT values were recorded as zero ΔCT values. […]

Ly-6C+ CD8+ T cells = test: Flow cytometry of tumor draining lymph nodes: frequency of Ly-6C+ T cells of CD8+ T cells (Example 15); format: in vivo, BALB/C mice; conditions: 7 days after randomization
Protocol: (§7) Hydrogels were administered as suspension in PTP buffer. Some cohorts were further treated with 20 μg human IL-2 (Peprotech, Rocky Hill, N.J.), intraperitoneally (I.P.), twice a day for 5 days. Mice were sacrificed 7 days after randomization (D0). Following sacrifice, tumor draining lymph nodes were isolated from both flanks and were dissociated mechanically to generate a single cell suspension at a cell concentration of 1×10^6 cells per sample. Cell suspensions were centrifuged at 300 g for 5 minutes. Supernatants were discarded and cells were resuspended in FACS buffer with 1 μg/ml Fc-Block and incubated at 4° C. for 10 minutes in the dark. Surface marker antibody mixtures (antibody concentration: 10 μg/mL) in FACS buffer were added to each sample and samples were incubated in the dark at 4° C. for 30 minutes. Cells were centrifuged at 300 g for 5 minutes and supernatants were discarded. Cells were washed and then resuspended with FACS buffer before cytometer collection.
(§8) After collection, FACS data was analyzed using FlowJo Version 10.6.1. Compensation was digitally adjusted using single antibody-stained beads. Samples with less than 90% viability, as determined by LiveDead cell staining, were excluded from the analysis. […]

Tnf = test: PBMC gene expression (qPCR, 6 hours post-treatment): Tnf (Example 17); format: in vivo, BALB/C mice
Protocol: as §2, §3, §4, §5, §6

[1] = parameters: species or system WISTAR rats; conditions: rat, in vivo, sc, 25 ug
Excerpt: Hydrogels were suspended (ca. 6% wt/v) PBST buffer at pH 7.4. […] Blood samples were withdrawn and used for plasma generation over the course of 28 d. […] Plasma concentration profiles were generated and analyzed with Phoenix WinNonlin software (Certara, Princeton, N.J., USA).

CCL2/MCP-1 = test: In vivo cytokine induction, plasma cytokine levels: CCL2/MCP-1 (Example 12); parameters: species or system BALB/C mice; conditions: single intratumoral dose
Protocol: as §1

Ccl4 = test: PBMC gene expression (qPCR, 6 hours post-treatment): Ccl4 (Example 17); format: in vivo, BALB/C mice
Protocol: as §2, §3, §4, §5, §6

Ccl2 = test: PBMC gene expression (qPCR, 6 hours post-treatment): Ccl2 (Example 17); format: in vivo, BALB/C mice
Protocol: as §2, §3, §4, §5, §6

Ifna4 = test: PBMC gene expression (qPCR, 6 hours post-treatment): Ifna4 (Example 17); format: in vivo, BALB/C mice
Protocol: as §2, §3, §4, §5, §6

CD4+ T cells = test: Flow cytometry of tumor draining lymph nodes: frequency of CD4+ T cells of CD3+ T cells (Example 15); format: in vivo, BALB/C mice; conditions: 7 days after randomization
Protocol: as §7, §8

CD8+ T cells = test: Flow cytometry of tumor draining lymph nodes: frequency of CD8+ T cells of CD3+ T cells (Example 15); format: in vivo, BALB/C mice; conditions: 7 days after randomization
Protocol: as §7, §8

CT26 tumor cells = test: In vivo anti-tumor efficacy, CT26 tumor volumes (Example 11); parameters: species or system BALB/C mice; conditions: single intratumoral dose
Protocol: Mice were subcutaneously implanted with 3×10^5 CT26 tumor cells in the left and right flanks. […] Hydrogels were administered as suspensions in PBST buffer. Following treatment initiation, anti-tumor efficacy was assessed by determination of tumor volumes at various time points from tumor size measurements with a caliper. Tumor volumes were calculated according to the formula: […]
where L is the length of the tumor and W the width (both in mm). Mice were removed from the study once tumors were greater than 1500 mm^3.

Il10 = test: PBMC gene expression (qPCR, 6 hours post-treatment): Il10 (Example 17); format: in vivo, BALB/C mice
Protocol: as §2, §3, §4, §5, §6

IL-6 = test: In vivo cytokine induction, plasma cytokine levels: IL-6 (Example 12); parameters: species or system BALB/C mice; conditions: single intratumoral dose
Protocol: as §1

[2] = tested on: Ly-6C+ MHCII+ antigen presenting cells; test: Flow cytometry of tumor draining lymph nodes: frequency of IA-IE (MHCII)+ antigen presenting cells of Ly-6C+ antigen presenting cells (Example 15); format: in vivo, BALB/C mice; conditions: 7 days after randomization
Protocol: as §7, §8

Ccl3 = test: PBMC gene expression (qPCR, 6 hours post-treatment): Ccl3 (Example 17); format: in vivo, BALB/C mice
Protocol: as §2, §3, §4, §5, §6

[3] = tested on: Ly-6C+ antigen presenting cells; test: Flow cytometry of tumor draining lymph nodes: frequency of Ly-6C+ antigen presenting cells of non-T cells (Example 15); format: in vivo, BALB/C mice; conditions: 7 days after randomization
Protocol: as §7, §8

Il1b = test: PBMC gene expression (qPCR, 6 hours post-treatment): Il1b (Example 17); format: in vivo, BALB/C mice
Protocol: as §2, §3, §4, §5, §6

Cxcl2 = test: PBMC gene expression (qPCR, 6 hours post-treatment): Cxcl2 (Example 17); format: in vivo, BALB/C mice
Protocol: as §2, §3, §4, §5, §6

Cxcl1 = test: PBMC gene expression (qPCR, 6 hours post-treatment): Cxcl1 (Example 17); format: in vivo, BALB/C mice
Protocol: as §2, §3, §4, §5, §6

IFNγ = test: In vivo cytokine induction, plasma cytokine levels: IFNγ (Example 12); parameters: species or system BALB/C mice; conditions: single intratumoral dose, values at or below LLOQ set to 0.01
Protocol: as §1

Il1a = test: PBMC gene expression (qPCR, 6 hours post-treatment): Il1a (Example 17); format: in vivo, BALB/C mice
Protocol: as §2, §3, §4, §5, §6

AUCPred-∞ [1]: 65.4 ng·h/mL
Cmax [1]: 23.1 ng/mL
t1/2 (biphasic), first value [1]: 1.5 h
t1/2 (biphasic), second value [1]: 10 h
Substance: Resiquimod [Compound 4]
TNFα plasma level, Mean (TNFα; 1 h post-treatment): 830.84 pg/mL
TNFα plasma level, Mean (TNFα; 3 h post-treatment): 136.25 pg/mL
TNFα plasma level, Mean (TNFα; 6 h post-treatment): 35.49 pg/mL
TNFα plasma level, Mean (TNFα; 10 h post-treatment): 43.32 pg/mL
TNFα plasma level, Mean (TNFα; 24 h post-treatment): 9.74 pg/mL
Cxl10 Mean (2^ΔΔCT) (Cxcl10): 45.38
Cxl10 Fold change (4/13i) (Cxcl10; ratio of 4 to 13i): 21.41
Frequency of Ly-6C+ T cells of CD8+ T cells, Mean (Ly-6C+ CD8+ T cells; injected right flank tumor): 53.7%
Frequency of Ly-6C+ T cells of CD8+ T cells, Mean (Ly-6C+ CD8+ T cells; uninjected left flank tumor): 48%
Tnf Mean (2^ΔΔCT) (Tnf): 4.64
Tnf Fold change (4/13i) (Tnf; ratio of 4 to 13i): 4.45
CCL2/MCP-1 plasma level, Mean (CCL2/MCP-1; 1 h post-treatment): 357.83 pg/mL
CCL2/MCP-1 plasma level, Mean (CCL2/MCP-1; 3 h post-treatment): 4230.35†, ‡ pg/mL
CCL2/MCP-1 plasma level, Mean (CCL2/MCP-1; 6 h post-treatment): 1039.17†, ‡ pg/mL
CCL2/MCP-1 plasma level, Mean (CCL2/MCP-1; 10 h post-treatment): 847.07† pg/mL
CCL2/MCP-1 plasma level, Mean (CCL2/MCP-1; 24 h post-treatment): 92.58 pg/mL
Ccl4 Mean (2^ΔΔCT) (Ccl4): 1.31
Ccl4 Fold change (4/13i) (Ccl4; ratio of 4 to 13i): 1.74
Ccl2 Mean (2^ΔΔCT) (Ccl2): 6.75
Ccl2 Fold change (4/13i) (Ccl2; ratio of 4 to 13i): 2.82
Ifna4 Mean (2^ΔΔCT) (Ifna4): 2.97
Ifna4 Fold change (4/13i) (Ifna4; ratio of 4 to 13i): 20.48
Frequency of CD4+ T cells of CD3+ T cells, Mean (CD4+ T cells; injected right flank tumor): 69.1%
Frequency of CD4+ T cells of CD3+ T cells, Mean (CD4+ T cells; uninjected left flank tumor): 69.25%
Frequency of CD8+ T cells of CD3+ T cells, Mean (CD8+ T cells; injected right flank tumor): 29.23%
Frequency of CD8+ T cells of CD3+ T cells, Mean (CD8+ T cells; uninjected left flank tumor): 29%
Absolute tumor volume, Mean (CT26 tumor cells; day 0 post-treatment): 88.82 mm^3
Absolute tumor volume, Mean (CT26 tumor cells; day 2 post-treatment): 108.44 mm^3
Absolute tumor volume, Mean (CT26 tumor cells; day 4 post-treatment): 128.42 mm^3
Absolute tumor volume, Mean (CT26 tumor cells; day 7 post-treatment): 316.07 mm^3
Absolute tumor volume, Mean (CT26 tumor cells; day 9 post-treatment): 549.72 mm^3
Absolute tumor volume, Mean (CT26 tumor cells; day 11 post-treatment): 957.90 mm^3
Absolute tumor volume, Mean (CT26 tumor cells; day 14 post-treatment): 1220.96 mm^3
Il10 Mean (2^ΔΔCT) (Il10): 2.77†
Il10 Fold change (4/13i) (Il10; ratio of 4 to 13i): 2.29
IL-6 plasma level, Mean (IL-6; 1 h post-treatment): 3618.87†, ‡ pg/mL
IL-6 plasma level, Mean (IL-6; 3 h post-treatment): 1739.75†, ‡ pg/mL
IL-6 plasma level, Mean (IL-6; 6 h post-treatment): 88.59 pg/mL
IL-6 plasma level, Mean (IL-6; 10 h post-treatment): 154.51 pg/mL
IL-6 plasma level, Mean (IL-6; 24 h post-treatment): 44.71 pg/mL
Frequency of IA-IE (MHCII)+ antigen presenting cells of Ly-6C+ antigen presenting cells, Mean ([2]; injected right flank tumor): 69.63%
Frequency of IA-IE (MHCII)+ antigen presenting cells of Ly-6C+ antigen presenting cells, Mean ([2]; uninjected left flank tumor): 35.05%
Ccl3 Mean (2^ΔΔCT) (Ccl3): 1.43†
Ccl3 Fold change (4/13i) (Ccl3; ratio of 4 to 13i): 1.64
Frequency of Ly-6C+ antigen presenting cells of non-T cells, Mean ([3]; injected right flank tumor): 2.5%
Frequency of Ly-6C+ antigen presenting cells of non-T cells, Mean ([3]; uninjected left flank tumor): 7.8%
Il1b Mean (2^ΔΔCT) (Il1b): 3.71†
Il1b Fold change (4/13i) (Il1b; ratio of 4 to 13i): 7.92
Cxcl2 Mean (2^ΔΔCT) (Cxcl2): 35.37
Cxcl2 Fold change (4/13i) (Cxcl2; ratio of 4 to 13i): 6.43
Cxcl1 Mean (2^ΔΔCT) (Cxcl1): 7.41
Cxcl1 Fold change (4/13i) (Cxcl1; ratio of 4 to 13i): 11.54
IFNγ plasma level, Mean (IFNγ; 1 h post-treatment): 4.04 pg/mL
IFNγ plasma level, Mean (IFNγ; 3 h post-treatment): 15.49†, ‡ pg/mL
IFNγ plasma level, Mean (IFNγ; 6 h post-treatment): 40.72†, ‡ pg/mL
IFNγ plasma level, Mean (IFNγ; 10 h post-treatment): 28.19†, ‡ pg/mL
IFNγ plasma level, Mean (IFNγ; 24 h post-treatment): 2.38 pg/mL
Il1a Mean (2^ΔΔCT) (Il1a): 0.41
Il1a Fold change (4/13i) (Il1a; ratio of 4 to 13i): 1.78
